According to US10987319B2, “TFEB activator C1 ameliorates app and tau pathology and rescues cognitive deficits in neurodegenerative diseases” (Hong Kong Baptist University, priority 2018, dated 2021):
Like-named read-outs stand apart in the source and are kept apart here.

What was measured:
Type in all cases: in vivo
[1] = Distribution of C1 in brain regions, plasma and CSF of rats 30 min after oral dosing; conditions: Sprague-Dawley, rat, SD rats, 30 min after oral 10 mg/kg
Method: Male C57BL/6 mice and Sprague Dawley rats were purchased from Chinese University of Hong Kong, acclimatized in Hong Kong Baptist university animal house for 2 weeks. Animals were kept for 18 h fasting before the experiment. Curcumin analog C1 and curcumin were suspended in 1% CMC-Na at 10 mg/kg, given to animals through oral route at 10 ml/kg dosing volume. Blood (by heart puncture) and brain samples were collected starting from 0.25, 0.5, 1, 2, 4, 6, 8, 12 and 24 h time points (n=3 for each time point) under chloral hydrate anesthesia at 500 mg/kg (I.P. injection). Based on mice pharmacokinetic study, rat blood, brain and cerebrospinal fluids (CSF) were collected at 30 minutes time point (n=4). All blood samples were collected in heparinized tubes. Plasma was collected by centrifuging at 10,000 rpm for 10 minutes at 4° C. Blood, brain and CSF were stored in −80° C. until further analysis.
Cerebrospinal fluid (CSF) was collected by puncturing Cisterna Magna. Briefly, stereotaxic apparatus (Stoelting, Wood Dale, USA) was used for CSF collection. The tip of CSF collection needle (21G) was placed at the center of stereotaxic apparatus ear bars contact and considered it as zero point. Then rats were anaesthetized with chloral hydrate at 500 mg/kg in saline through intra-peritoneal route. Rats were fixed on the stereotaxic apparatus with 3 cm elevated body position. Rat head was positioned at nearly 110° angle between stereotaxic apparatus frame and rat nose. Cisterna magna location was identified by a 3 mm^2 depressed area between the spine and occipital protuberance in mid-sagittal plane, at 10-12 mm approximate distance from ear. The collection needle was inserted into the Cisterna magna from zero point at A−P: −1.5±1 mm, M−L: 0 mm and D−V: not more than 4-6 mm (from the skin surface). The needle was connected to a 1 ml syringe through a silicon tube. By applying a gentle negative pressure through 1 ml syringe, 100 μl of CSF without any blood contamination was collected.
Whole brain and brain parts were homogenized with 2 weight/volumes of PBS (pH=3.2), spiked with 10 μl of internal standard salbutamol (200 ng/ml in methanol). The homogenate was liquid-liquid extracted with 1 ml of ethyl acetate. 50 μl of 0.5M sodium hydroxide was added to the brain homogenate for efficient C1 extraction. After vigorous sonication and vortex mixing, samples were centrifuged at 15,000 RPM for 10 min. The supernatant was collected and vacuum dried. The samples were reconstituted with 100 μl of mobile phase (0.1% formic acid in acetonitrile), vortex mixed and transferred to an amber colored sampler vial with plastic insert.
100 μl of plasma and CSF was mixed with 100 μl of PBS (pH=3.2), 10 μl of 0.05 M sodium hydroxide and spiked with 10 μl of salbutamol (200 ng/ml in methanol). The mixture was liquid-liquid extracted with 500 μl of ethyl acetate. After vigorous sonication and vortex mixing, samples were centrifuged at 15,000 RPM for 10 min at 4° C. The supernatant was collected and vacuum dried. The samples were reconstituted with 100 μl of mobile phase (0.1% formic acid in acetonitrile), vortex mixed and transferred to an amber colored sampler vial with plastic insert.
UPLC 1290 (Agilent technologies, CA, USA) with binary pump, autosampler system, column with thermostat, vacuum degasser and 6460 QQQ Mass spectrometer was used for compound detection. Chromatographic separation was achieved by waters BEH-C18 (1.7 μm, 2.1×50 mm) column maintained at 40° C. […]

[2] = tested on: APP, APP CTFs, Aβ, LC3-II; assay: Western blotting of brain tissue, 5×FAD mice
Method: 5×FAD male mice were inbred with wild-type (WT, C57/BL6) female mice to produce heterozygous offspring. Offspring were genotyped to select 5×FAD (APP KM670/671NL (Swedish), APP I716V (Florida), APP V717I (London), PSEN1 M146L (A>C), PSEN1 L286V) gene mutations mice.
Brain tissues were lysed with RIPA buffer (TBS with 1% NP-40, 1% sodium deoxycholic acid, 0.1% SDS, and protease phosphatase inhibitor cocktails) and centrifuged at 15,000 RPM for 30 min. Supernatant is collected and the pellets were further lysed with 2% SDS in RIPA buffer. Protein concentration was estimated by BCA assay. […] Protein chemiluminescence signal was detected by using ECL kit and quantified using ImageJ software.

[3] = tested on: Aβ plaques; assay: Immunohistochemistry of Aβ plaques (4G8 antibody), 3×Tg mice; conditions: 10 mg/kg oral 7 months
Method: Homozygous 3×Tg mice (APP KM670/671NL (Swedish), MAPT P301L, PSEN1 M146V) were produced in Hong Kong Baptist University animal house and maintained at 23±2° C. temperature, 60±15% relative humidity with free access to food and water ad libitum.
Brain sections (30 μm) were cut on a microtome and stored at 4° C. in PBS+0.1% sodium azide. Sections were permeabilized for 10 min with cold PBS containing 0.5% Triton X-100 and blocked with 3% bovine serum albumin for 1 h at room temperature.

[4] = 5×FAD mice, male and female, 10 mg/kg oral 4 months

concentration at 30 min ([1]; cerebrospinal fluid, read-out: level of C1 in CSF): 102 ± 52.4 ng/mL
concentration at 30 min ([1]; frontal cortex, read-out: concentration of C1 in the frontal cortex): 58 ± 18.6 ng/g
concentration at 30 min ([1]; hippocampus, read-out: concentration of C1 in the hippocampus): 68.4 ± 21.7 ng/g
concentration at 30 min ([1]; plasma, read-out: level of C1 in plasma): 352 ± 21.4 ng/mL
concentration at 30 min ([1]; striatum, read-out: concentration of C1 in the striatum): 4.69 ± 2.19 ng/g
Structure (SMILES): COc1ccccc1/C=C/C(=O)/C=C/c1ccccc1OC [Compound C1, 1,5-bis(2-methoxyphenyl)penta-1,4-dien-3-one]
LC3-II levels in brain (autophagy enhancement) [2, 4]: increase in LC3-II levels
levels of A3 in brain [2, 4]: significantly reduced
levels of APP CTFs in brain [2, 4]: significantly reduced
Fl-APP levels in brain ([2]; female 5×FAD mice, oral 4 months): reduced Fl-APP levels
hippocampal Aβ plaque load [3]: reduces hippocampal Aβ plaque load
